Results published in US9834558B2, “Substituted bridged urea analogs as sirtuin modulators” (GLAXOSMITHKLINE LLC, priority 2013, dated 2017).
Read-outs that look alike come from different tables or passages of the source.

Target: T1, SIRT1 (Homo sapiens, UniProt Q96EB6)
T1 sequence (Q96EB6 1-747): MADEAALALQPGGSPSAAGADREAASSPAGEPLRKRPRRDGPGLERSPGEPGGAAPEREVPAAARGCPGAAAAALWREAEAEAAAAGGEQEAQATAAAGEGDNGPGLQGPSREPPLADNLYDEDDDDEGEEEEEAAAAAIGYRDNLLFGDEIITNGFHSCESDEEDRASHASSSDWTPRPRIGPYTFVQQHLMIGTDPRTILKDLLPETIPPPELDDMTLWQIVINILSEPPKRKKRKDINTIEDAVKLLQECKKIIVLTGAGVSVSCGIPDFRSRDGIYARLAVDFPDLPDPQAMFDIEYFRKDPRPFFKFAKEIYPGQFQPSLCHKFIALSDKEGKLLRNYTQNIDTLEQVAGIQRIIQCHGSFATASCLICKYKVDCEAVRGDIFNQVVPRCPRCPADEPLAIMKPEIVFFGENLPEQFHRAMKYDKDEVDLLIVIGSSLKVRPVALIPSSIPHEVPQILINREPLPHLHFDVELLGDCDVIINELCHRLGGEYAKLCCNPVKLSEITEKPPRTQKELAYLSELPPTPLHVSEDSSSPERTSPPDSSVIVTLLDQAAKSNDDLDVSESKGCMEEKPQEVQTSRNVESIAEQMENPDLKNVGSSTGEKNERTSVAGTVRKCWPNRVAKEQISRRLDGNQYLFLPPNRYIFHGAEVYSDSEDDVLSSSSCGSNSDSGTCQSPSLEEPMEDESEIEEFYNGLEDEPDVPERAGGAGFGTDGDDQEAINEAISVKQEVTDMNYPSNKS
Assay: Trp mass spectrometry assay of SIRT1 activation
Format: biochemical
Details: for TRP Activity (EC1.5): EC1.5 = concentration that results in 150% activation of SIRT1
In short: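 Activation read-out: mass-spec measurement of O-acetyl-ADP-ribose or deacetylated Trp peptide versus compound-free controls, giving EC1.5 and Percent Maximum Activation. Reactions ran 25 min at 25 °C, pH 7.5, with 120 μM βNAD+, 0.5 μM acetylated p53-derived peptide and 10 nM His-tagged SIRT1.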

[1] = Trp mass spectrometry assay, concentration of test compound giving 150% activation of SIRT1
[2] = Trp peptide assay, maximum activity relative to control (100%), read-out: TRP MAX RESP (percent maximum fold activation)
[3] = Trp mass spectrometry assay, EC1.5 = concentration of test compound that results in 150% activation of SIRT1
[4] = concentration giving 150% activation of SIRT1, Trp peptide substrate

TRP Activity (EC1.5) (Trp peptide assay) | Emax [2] | Tryp AVG EC1.5 (μM) [3] | Structure (SMILES) | other results
 |  |  | COc1ccc(-c2ccc3c(n2)N(C(=O)Nc2cnccn2)[C@H]2CCN3C2)cn1 [Example 399] | Tryp AVG EC1.5 (μM) [1]: B (B (EC1.5 1-25 μM))
B (B (EC1.5 1-25 μM)) | > 150% |  | O=C(NC1CCOC1)c1ccc2c(n1)N(C(=O)Nc1ccccn1)[C@H]1CCN2C1 (stereo partly drawn) [(9S)-5-N-(oxolan-3-yl)-8-N-(pyridin-2-yl)-1,6,8-triazatricyclo[7.2.1.0 {2,7}]dodeca-2(7),3,5-triene-5,8-dicarboxamide] | 
 |  | B (B (EC1.5 1-25 μM)) | CC(C)(C)OC(=O)N1CCCc2ccc(NC(=O)N3c4nc(-c5cccc(C(F)(F)F)c5)ccc4N4CC[C@H]3C4)cc21 [Example 610] | 
 |  |  | O=C(Nc1ncc(-c2ccccc2)s1)N1c2nc(-c3cccc(C(F)(F)F)c3)ccc2N2CC[C@H]1C2 [Example 734] | Tryp AVG EC1.5 (μM) [4]: B (B (EC1.5 1-25 μM))
B (B (EC1.5 1-25 μM)) | > 150% |  | Cn1cc(-c2ccc3c(n2)N(C(=O)Nc2cccnc2)[C@H]2CCN3C2)ccc1=O [(9S)-5-(1-methyl-6-oxo-1,6-dihydropyridin-3-yl)-N-(pyridin-3-yl)-1,6,8-triazatricyclo[7.2.1.0^2,7]dodeca-2(7),3,5-triene-8-carboxamide] | 
C (C (EC1.5>25 μM)) | < 150% |  | Cc1ccc(-c2ccc3c(n2)N(C(=O)NC2CCOC2)[C@H]2CCN3C2)cn1 (stereo partly drawn) [(9S)-5-(6-methylpyridin-3-yl)-N-(oxolan-3-yl)-1,6,8-triazatricyclo[7.2.1.0 {2,7}]dodeca-2,4,6-triene-8-carboxamide] | 
B (B (EC1.5 1-25 μM)) | > 150% |  | O=C(Nc1ccccn1)N1c2nc(N3CCC[C@@H](C(F)(F)F)C3)ccc2N2CC[C@H]1C2 [(9S)-N-(pyridin-2-yl)-5-[(3R)-3-(trifluoromethyl)piperidin-1-yl]-1,6,8-triazatricyclo[7.2.1.0 {2,7}]dodeca-2,4,6-triene-8-carboxamide] | 
 |  | B (B (EC1.5 1-25 μM)) | O=C(Nc1cnccn1)N1c2nc(-c3cccnc3)ccc2N2CCC[C@H]1C2 [Example 454] | 
 |  | B (B (EC1.5 1-25 μM)) | Cc1n[nH]c(C)c1-c1ccc2c(n1)N(C(=O)Nc1cccnc1)[C@H]1CCN2C1 [Example 525] | 
 |  |  | CCc1nnc(NC(=O)N2c3nc(-c4cccc(C(F)(F)F)c4)ccc3N3CC[C@H]2C3)s1 [Example 647] | Tryp AVG EC1.5 (μM) [4]: A (A (EC1.5<1 μM))
 |  | B (B (EC1.5 1-25 μM)) | Cc1nc(NC(=O)N2c3nc(-c4ccccc4C#N)ccc3N3CCC[C@H]2C3)sc1C [Example 476] | 
 |  | A (A (EC1.5<1 μM)) | Cc1cc(NC(=O)N2c3nc(-c4cccc(C(F)(F)F)c4)ccc3N3CC[C@H]2C3)cc(Br)n1 [Example 540] | 
 |  | B (B (EC1.5 1-25 μM)) | O=C(Nc1cncc(F)c1)N1c2nc(-c3cncc(Cl)c3)ccc2N2CCC1CC2 [Example 545] | 
 |  | C (C (EC1.5>25 μM)) | CC(C)N1CCCN(c2ccc3c(n2)N(C(=O)Nc2ccncn2)[C@H]2CCCN3C2)CC1 [Example 447] | 
 |  | B (B (EC1.5 1-25 μM)) | O=C(Nc1cnccn1)N1c2nc(-c3cncc(F)c3)ccc2N2CCC1CC2 [Example 555] | 
C (C (EC1.5>25 μM)) | < 150% |  | N#Cc1ccc(-c2ccc3c(n2)N(C(=O)Nc2cnccn2)[C@H]2CCN3C2)cn1 [(9S)-5-(6-cyanopyridin-3-yl)-N-(pyrazin-2-yl)-1,6,8-triazatricyclo[7.2.1.0 {2,7}]dodeca-2,4,6-triene-8-carboxamide] | 
B (B (EC1.5 1-25 μM)) | > 150% |  | CN(C)c1cccc(-c2ccc3c(n2)N(C(=O)Nc2cnccn2)[C@H]2CCN3C2)c1 [(9S)-5-[3-(dimethylamino)phenyl]-N-(pyrazin-2-yl)-1,6,8-triazatricyclo[7.2.1.0 {2,7}]dodeca-2(7),3,5-triene-8-carboxamide] | 
 |  |  | O=C(Nc1cccnn1)N1c2nc(-c3cccc(C(F)(F)F)c3)ccc2N2C[C@@H](O)[C@H]1C2 [Example 631] | Tryp AVG EC1.5 (μM) [4]: B (B (EC1.5 1-25 μM))
A (A (EC1.5<1 μM)) | > 150% |  | CC(C)c1cc(-c2ccc3c(n2)N(C(=O)Nc2cnccn2)[C@H]2CCN3C2)ccn1 [(9S)-5-[2-(propan-2-yl)pyridin-4-yl]-N-(pyrazin-2-yl)-1,6,8-triazatricyclo[7.2.1.0 {2,7}]dodeca-2,4,6-triene-8-carboxamide] | 

TRP Activity (EC1.5) (Trp peptide assay) | Emax [2] | Tryp AVG EC1.5 (μM) [3] | Structure (SMILES) | other results
B (B (EC1.5 1-25 μM)) | > 150% |  | Cc1cc(-c2ccc3c(n2)N(C(=O)Nc2ccnnc2)[C@H]2CCN3C2)ccn1 [(9S)-5-(2-methylpyridin-4-yl)-N-(pyridazin-4-yl)-1,6,8-triazatricyclo[7.2.1.0^{2,7}]dodeca-2,4,6-triene-8-carboxamide] | 
 |  |  | O=C(Nc1cc(-c2cnco2)ccn1)N1c2nc(-c3cccc(Cl)c3)ccc2N2C[C@@H](O)[C@H]1C2 [Example 685] | Tryp AVG EC1.5 (μM) [4]: B (B (EC1.5 1-25 μM))
A (A (EC1.5<1 μM)) | > 150% |  | Cc1cc(-c2ccc3c(n2)N(C(=O)Nc2cnccn2)[C@H]2CCN3C2)cc(C(F)(F)F)n1 [(9S)-5-[2-methyl-6-(trifluoromethyl)pyridin-4-yl]-N-(pyrazin-2-yl)-1,6,8-triazatricyclo[7.2.1.0 {2,7}]dodeca-2(7),3,5-triene-8-carboxamide] | 
C (C (EC1.5>25 μM)) | < 150% |  | O=C(Nc1cccnc1)N1c2nc(N3CCOC[C@@H]3CO)ccc2N2CC[C@H]1C2 [(9S)-5-[(3S)-3-(hydroxymethyl)morpholin-4-yl]-N-(pyridin-3-yl)-1,6,8-triazatricyclo[7.2.1.0 {2,7}]dodeca-2(7),3,5-triene-8-carboxamide] | 
 |  | B (B (EC1.5 1-25 μM)) | Cc1cc(-c2ccc3c(n2)N(C(=O)Nc2cnn(C)c2)[C@H]2CCN3C2)ccn1 [Example 482] | 
 |  | C (C (EC1.5>25 μM)) | O=C1OC2(c3ccc(O)cc3Oc3cc(O)ccc32)c2ccc(NC(=S)NCc3cn(C4=CC(NC(=O)N5c6nc(-c7cccc(C(F)(F)F)c7)ccc6N6CC[C@H]5C6)CC=C4)nn3)cc21 (stereo partly drawn) [Example 608] | Emax (Trp mass spectrometry assay, percent maximum fold activation of SIRT1, read-out: Tryp % Fold Act): < 150%
 |  | C (C (EC1.5>25 μM)) | Cc1ccncc1-c1ccc2c(n1)N(C(=O)Nc1cnccn1)[C@H]1CCCN2C1 [Example 513] | 
 |  |  | O=C(Nc1ccc(Oc2ccccc2)cc1)N1c2nc(-c3cccc(C(F)(F)F)c3)ccc2N2CC[C@H]1C2 [Example 641] | Tryp AVG EC1.5 (μM) [4]: C (C (EC1.5>25 μM))
B (B (EC1.5 1-25 μM)) | > 150% |  | Cc1cc(-c2ccc3c(n2)N(C(=O)Nc2nccnc2F)[C@H]2CCN3C2)ccn1 [(9S)-N-(3-fluoropyrazin-2-yl)-5-(2-methylpyridin-4-yl)-1,6,8-triazatricyclo[7.2.1.0^{2,7}]dodeca-2,4,6-triene-8-carboxamide] | 
 |  |  | CN(C)c1cccc(-c2ccc3c(n2)N(C(=O)Nc2ccccn2)[C@H]2CCCN3C2)c1 [Example 386] | Tryp AVG EC1.5 (μM) [1]: B (B (EC1.5 1-25 μM))
 |  |  | O=C(Nc1ccc2[nH]ncc2c1)N1c2nc(-c3cccc(C(F)(F)F)c3)ccc2N2CC[C@H]1C2 [Example 666] | Tryp AVG EC1.5 (μM) [4]: A (A (EC1.5<1 μM))
A (A (EC1.5<1 μM)) | > 150% |  | Cc1cc(-c2ccc3c(n2)N(C(=O)Nc2cc4cn[nH]c4cn2)[C@H]2CCN3C2)ccn1 [(9S)-5-(2-methylpyridin-4-yl)-N-{1H-pyrazolo[3,4-c]pyridin-5-yl}-1,6,8-triazatricyclo[7.2.1.0 {2,7}]dodeca-2(7),3,5-triene-8-carboxamide] | 
 |  |  | N=C(N)NCc1ccc(NC(=O)N2c3nc(-c4cccc(C(F)(F)F)c4)ccc3N3CCC[C@H]2C3)cc1 [Example 777] | Tryp AVG EC1.5 (μM) [4]: A (A (EC1.5<1 μM))
 |  | A (A (EC1.5<1 μM)) | O=C(Nc1ccccn1)N1c2nc(-c3cccc(C(F)(F)F)c3)ccc2N2C[C@@H](O)[C@H]1C2 [Example 601] | 
 |  |  | O=C(Nc1ccc(Br)c(-c2cnco2)c1)N1c2nc(-c3cccc(C(F)(F)F)c3)ccc2N2CC[C@H]1C2 [Example 672] | Tryp AVG EC1.5 (μM) [4]: A (A (EC1.5<1 μM))
 |  | A (A (EC1.5<1 μM)) | O=C(Nc1cccc(-c2cnco2)c1)N1c2nc(-c3cccc(C(F)(F)F)c3)ccc2N2CCC1CC2 [Example 473] | 
 |  |  | CN(C)c1ccnc(NC(=O)N2c3nc(-c4cccc(C(F)(F)F)c4)ccc3N3CC[C@H]2C3)n1 [Example 747] | Tryp AVG EC1.5 (μM) [4]: A (A (EC1.5<1 μM))
B (B (EC1.5 1-25 μM)) | > 150% |  | Cc1cc(-c2ccc3c(n2)N(C(=O)Nc2cccc4nnc(C)cc24)[C@H]2CCN3C2)ccn1 [(9S)-N-(3-methylcinnolin-5-yl)-5-(2-methylpyridin-4-yl)-1,6,8-triazatricyclo[7.2.1.0 {2,7}]dodeca-2(7),3,5-triene-8-carboxamide] | 
